Experimental data: patent publication US10351575B2, “Bicyclic urea, thiourea, guanidine and cyanoguanidine compounds useful for the treatment of pain” (Array BioPharma Inc., priority 2012, dated 2019)

Columns and labels:
Assay in all cases: KinaseProfiler off-target kinase profiling
Assay type in all cases: biochemical
Conditions in all cases: 10 μM, ATP near Km
MLK1 = MLK1 (Homo sapiens (Human), UniProt P80192)
How it was run: (§1)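 Single-point profiling: the compound is run at 10 μM against the kinase, ATP being set near that enzyme's Km. Duplicate determinations are averaged and expressed as POC.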

CHK2 = CHK2 (Homo sapiens (Human), UniProt O96017)
How it was run: as §1

PRKG1alpha = PRKG1alpha (Homo sapiens (Human), UniProt Q13976)
How it was run: as §1

Fms = Fms (Homo sapiens (Human), UniProt P07333)
How it was run: as §1

ARK5 = ARK5 (Homo sapiens (Human), UniProt O60285)
Chain of ARK5 (O60285 whole entry): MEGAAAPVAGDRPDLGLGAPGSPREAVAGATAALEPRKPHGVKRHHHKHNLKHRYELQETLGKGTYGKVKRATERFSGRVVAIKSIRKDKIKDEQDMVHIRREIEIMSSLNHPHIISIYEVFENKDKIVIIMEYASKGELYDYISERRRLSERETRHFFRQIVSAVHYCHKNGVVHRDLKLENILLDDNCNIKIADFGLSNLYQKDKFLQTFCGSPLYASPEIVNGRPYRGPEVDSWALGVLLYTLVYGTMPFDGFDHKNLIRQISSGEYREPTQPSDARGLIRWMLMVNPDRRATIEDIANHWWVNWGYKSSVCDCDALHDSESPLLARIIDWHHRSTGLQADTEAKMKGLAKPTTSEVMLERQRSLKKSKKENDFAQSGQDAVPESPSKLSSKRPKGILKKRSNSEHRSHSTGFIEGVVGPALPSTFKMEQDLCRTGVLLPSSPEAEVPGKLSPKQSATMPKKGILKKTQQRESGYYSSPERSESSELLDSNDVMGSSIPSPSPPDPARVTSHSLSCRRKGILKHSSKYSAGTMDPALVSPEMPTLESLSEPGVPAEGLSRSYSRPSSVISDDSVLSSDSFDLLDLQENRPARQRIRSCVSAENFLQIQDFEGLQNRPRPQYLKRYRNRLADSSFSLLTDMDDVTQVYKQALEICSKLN
How it was run: as §1

BrSK2 = BrSK2 (Homo sapiens (Human), UniProt Q8IWQ3)
How it was run: as §1

DMPK = DMPK (Homo sapiens (Human), UniProt Q09013)
How it was run: as §1

PKCdelta = PKCdelta (Homo sapiens (Human), UniProt Q05655)
How it was run: as §1

Plk2 = Plk2 (Homo sapiens (Human), UniProt Q9NYY3)
How it was run: as §1

DRAK1 = DRAK1 (Homo sapiens (Human), UniProt Q9UEE5)
How it was run: as §1

SRPK1 = SRPK1 (Homo sapiens (Human), UniProt Q96SB4)
How it was run: as §1

PKCalpha = PKCalpha (Homo sapiens (Human), UniProt P17252)
How it was run: as §1

KIT = KIT (Homo sapiens (Human), UniProt P10721)
Chain of KIT (P10721 26-976): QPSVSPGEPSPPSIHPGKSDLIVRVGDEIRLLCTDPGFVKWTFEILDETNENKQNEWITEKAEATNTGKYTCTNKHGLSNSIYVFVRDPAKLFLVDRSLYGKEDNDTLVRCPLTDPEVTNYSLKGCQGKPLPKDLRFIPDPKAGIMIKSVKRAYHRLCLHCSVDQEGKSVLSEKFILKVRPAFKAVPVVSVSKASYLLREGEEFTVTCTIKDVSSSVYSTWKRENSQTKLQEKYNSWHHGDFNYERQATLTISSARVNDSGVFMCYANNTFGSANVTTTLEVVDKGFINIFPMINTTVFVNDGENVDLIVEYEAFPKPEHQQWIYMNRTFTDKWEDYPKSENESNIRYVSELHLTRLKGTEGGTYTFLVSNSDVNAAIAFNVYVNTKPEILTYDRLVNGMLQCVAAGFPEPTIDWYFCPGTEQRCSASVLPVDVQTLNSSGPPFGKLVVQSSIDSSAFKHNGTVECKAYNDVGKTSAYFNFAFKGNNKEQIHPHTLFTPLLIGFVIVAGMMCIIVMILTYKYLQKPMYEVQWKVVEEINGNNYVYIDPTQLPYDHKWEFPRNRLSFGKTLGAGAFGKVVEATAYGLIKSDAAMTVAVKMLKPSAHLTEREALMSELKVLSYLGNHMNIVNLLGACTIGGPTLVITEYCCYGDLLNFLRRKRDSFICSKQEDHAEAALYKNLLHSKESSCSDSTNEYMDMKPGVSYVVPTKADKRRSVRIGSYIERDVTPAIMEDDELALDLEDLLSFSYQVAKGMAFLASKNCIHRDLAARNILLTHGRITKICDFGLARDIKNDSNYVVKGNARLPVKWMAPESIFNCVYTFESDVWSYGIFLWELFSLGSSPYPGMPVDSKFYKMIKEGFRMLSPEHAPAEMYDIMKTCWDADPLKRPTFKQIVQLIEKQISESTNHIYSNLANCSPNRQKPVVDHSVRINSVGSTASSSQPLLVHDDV
How it was run: as §1

DDR2 = DDR2 (Homo sapiens (Human), UniProt Q16832)
How it was run: as §1

CDK5/p35 = CDK5/p35 (Homo sapiens (Human), UniProt Q00535)
Chain of CDK5/p35 (Q00535 whole entry): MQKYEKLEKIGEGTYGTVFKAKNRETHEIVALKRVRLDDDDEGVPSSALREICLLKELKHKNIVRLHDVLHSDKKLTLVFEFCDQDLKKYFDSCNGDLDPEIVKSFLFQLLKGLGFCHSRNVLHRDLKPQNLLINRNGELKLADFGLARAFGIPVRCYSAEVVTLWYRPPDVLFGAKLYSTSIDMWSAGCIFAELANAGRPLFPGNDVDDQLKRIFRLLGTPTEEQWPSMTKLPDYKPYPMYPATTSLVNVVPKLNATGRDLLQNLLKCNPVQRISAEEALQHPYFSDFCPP
Chain of CDK5/p35 (Q15078 2-307 partner): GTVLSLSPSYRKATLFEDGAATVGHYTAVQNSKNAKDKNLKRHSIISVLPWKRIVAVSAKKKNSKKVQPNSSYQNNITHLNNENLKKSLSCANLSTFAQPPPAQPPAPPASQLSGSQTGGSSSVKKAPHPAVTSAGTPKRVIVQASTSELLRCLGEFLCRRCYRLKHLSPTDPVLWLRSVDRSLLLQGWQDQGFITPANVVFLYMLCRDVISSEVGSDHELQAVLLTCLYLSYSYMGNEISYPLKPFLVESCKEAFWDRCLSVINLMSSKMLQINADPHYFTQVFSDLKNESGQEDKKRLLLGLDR
How it was run: as §1

Fyn = Fyn (Homo sapiens (Human), UniProt P06241)
How it was run: as §1

NLK = NLK (Homo sapiens (Human), UniProt Q9UBE8)
Chain of NLK (Q9UBE8 whole entry): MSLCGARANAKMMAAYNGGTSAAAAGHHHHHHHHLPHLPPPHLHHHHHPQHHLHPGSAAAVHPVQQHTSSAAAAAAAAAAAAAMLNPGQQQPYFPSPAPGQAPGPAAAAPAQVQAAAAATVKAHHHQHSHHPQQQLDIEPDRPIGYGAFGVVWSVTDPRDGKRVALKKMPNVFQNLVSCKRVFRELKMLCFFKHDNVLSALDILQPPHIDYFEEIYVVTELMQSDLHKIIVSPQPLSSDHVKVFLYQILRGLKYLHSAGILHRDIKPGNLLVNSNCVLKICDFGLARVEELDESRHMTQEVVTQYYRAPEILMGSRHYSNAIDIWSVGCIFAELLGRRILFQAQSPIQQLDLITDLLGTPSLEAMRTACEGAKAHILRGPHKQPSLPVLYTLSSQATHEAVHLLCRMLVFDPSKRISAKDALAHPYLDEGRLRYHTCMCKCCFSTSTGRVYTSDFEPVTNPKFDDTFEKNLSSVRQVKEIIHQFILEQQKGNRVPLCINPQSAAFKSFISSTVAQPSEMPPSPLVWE
How it was run: as §1

EphB1 = EphB1 (Homo sapiens (Human), UniProt P54762)
How it was run: as §1

CHK1 = CHK1 (Homo sapiens (Human), UniProt O14757)
How it was run: as §1

mTOR/FKBP12 = mTOR/FKBP12 (Homo sapiens (Human), UniProt P42345)
How it was run: as §1

PKCiota = PKCiota (Homo sapiens (Human), UniProt P41743)
How it was run: as §1

p38gamma = p38gamma (Homo sapiens (Human), UniProt P53778)
Chain of p38gamma (P53778 whole entry): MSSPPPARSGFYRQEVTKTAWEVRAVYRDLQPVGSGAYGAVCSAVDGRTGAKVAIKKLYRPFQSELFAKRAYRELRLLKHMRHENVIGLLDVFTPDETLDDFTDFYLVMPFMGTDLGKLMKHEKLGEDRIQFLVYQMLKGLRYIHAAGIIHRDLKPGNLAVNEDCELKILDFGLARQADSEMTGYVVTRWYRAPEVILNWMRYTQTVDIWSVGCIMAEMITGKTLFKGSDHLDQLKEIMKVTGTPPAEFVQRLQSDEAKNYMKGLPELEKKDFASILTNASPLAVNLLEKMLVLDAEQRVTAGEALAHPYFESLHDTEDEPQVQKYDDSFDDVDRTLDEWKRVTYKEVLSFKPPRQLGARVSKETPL
How it was run: as §1

TAK1 = TAK1 (Homo sapiens (Human), UniProt O43318)
Chain of TAK1 (O43318 1-303): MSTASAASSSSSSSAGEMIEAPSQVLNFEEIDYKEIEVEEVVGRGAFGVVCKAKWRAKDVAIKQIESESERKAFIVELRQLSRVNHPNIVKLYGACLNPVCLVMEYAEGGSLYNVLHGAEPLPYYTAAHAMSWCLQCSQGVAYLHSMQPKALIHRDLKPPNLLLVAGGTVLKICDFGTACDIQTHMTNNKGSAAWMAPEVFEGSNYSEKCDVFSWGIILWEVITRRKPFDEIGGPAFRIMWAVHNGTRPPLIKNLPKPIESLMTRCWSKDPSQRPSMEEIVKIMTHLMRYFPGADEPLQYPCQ
Chain of TAK1 (Q15750 437-504 partner): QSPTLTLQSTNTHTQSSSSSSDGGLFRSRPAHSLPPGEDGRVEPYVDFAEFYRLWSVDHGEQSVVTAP
How it was run: as §1

EGFR = EGFR (Homo sapiens (Human), UniProt P00533)
How it was run: as §1

KDR = KDR (Homo sapiens (Human), UniProt P35968)
How it was run: as §1

TNK2 = TNK2 (Homo sapiens (Human), UniProt Q07912)
How it was run: as §1

LKB1 = LKB1 (Homo sapiens (Human), UniProt Q15831)
How it was run: as §1

EphB4 = EphB4 (Homo sapiens (Human), UniProt P54760)
How it was run: as §1

PhKgamma2 = PhKgamma2 (Homo sapiens (Human), UniProt P15735)
How it was run: as §1

CDK1/cyclinB = CDK1/cyclinB (Homo sapiens (Human), UniProt P06493)
How it was run: as §1

VRK2 = VRK2 (Homo sapiens (Human), UniProt Q86Y07)
Chain of VRK2 (Q86Y07 whole entry): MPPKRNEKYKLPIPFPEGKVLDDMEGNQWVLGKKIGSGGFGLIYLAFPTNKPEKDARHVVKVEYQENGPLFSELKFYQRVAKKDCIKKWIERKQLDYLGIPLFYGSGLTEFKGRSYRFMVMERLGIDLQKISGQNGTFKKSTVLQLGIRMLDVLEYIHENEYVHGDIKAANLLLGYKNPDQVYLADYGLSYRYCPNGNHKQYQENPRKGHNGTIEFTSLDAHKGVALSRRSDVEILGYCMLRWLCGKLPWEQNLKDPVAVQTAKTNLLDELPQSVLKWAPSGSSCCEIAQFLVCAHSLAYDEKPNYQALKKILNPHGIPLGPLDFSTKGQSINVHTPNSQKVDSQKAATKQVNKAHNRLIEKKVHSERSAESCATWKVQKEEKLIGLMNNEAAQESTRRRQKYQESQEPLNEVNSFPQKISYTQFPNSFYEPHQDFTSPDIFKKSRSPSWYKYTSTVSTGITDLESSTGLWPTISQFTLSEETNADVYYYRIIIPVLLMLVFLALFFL
How it was run: as §1

EphA1 = EphA1 (Homo sapiens (Human), UniProt P21709)
Chain of EphA1 (P21709 26-976): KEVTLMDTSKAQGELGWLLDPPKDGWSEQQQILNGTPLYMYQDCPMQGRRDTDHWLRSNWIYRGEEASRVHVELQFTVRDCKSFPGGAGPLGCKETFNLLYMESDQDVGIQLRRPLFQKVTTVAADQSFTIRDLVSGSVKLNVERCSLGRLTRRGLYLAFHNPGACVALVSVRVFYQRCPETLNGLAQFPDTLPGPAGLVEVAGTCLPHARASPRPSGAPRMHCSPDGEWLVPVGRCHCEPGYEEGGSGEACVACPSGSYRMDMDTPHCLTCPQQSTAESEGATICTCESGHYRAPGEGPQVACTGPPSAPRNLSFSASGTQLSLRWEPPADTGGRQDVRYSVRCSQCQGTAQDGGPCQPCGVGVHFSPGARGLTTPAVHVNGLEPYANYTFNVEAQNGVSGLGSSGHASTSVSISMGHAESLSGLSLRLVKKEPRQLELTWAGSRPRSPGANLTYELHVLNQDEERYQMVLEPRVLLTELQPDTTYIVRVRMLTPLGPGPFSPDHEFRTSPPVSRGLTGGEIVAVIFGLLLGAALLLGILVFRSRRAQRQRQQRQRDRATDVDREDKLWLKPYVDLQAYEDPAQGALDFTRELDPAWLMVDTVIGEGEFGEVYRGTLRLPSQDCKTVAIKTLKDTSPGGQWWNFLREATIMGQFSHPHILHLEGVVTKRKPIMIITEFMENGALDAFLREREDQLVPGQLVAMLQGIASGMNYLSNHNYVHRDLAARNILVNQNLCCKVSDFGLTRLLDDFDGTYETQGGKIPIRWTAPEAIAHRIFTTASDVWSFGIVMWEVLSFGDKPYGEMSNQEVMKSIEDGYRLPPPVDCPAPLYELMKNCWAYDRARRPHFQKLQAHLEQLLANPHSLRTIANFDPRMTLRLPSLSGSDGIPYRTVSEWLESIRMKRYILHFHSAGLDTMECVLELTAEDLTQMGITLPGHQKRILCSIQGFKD
How it was run: as §1

BTK = BTK (Homo sapiens (Human), UniProt Q06187)
How it was run: as §1

MAP3K5 = MAP3K5 (Homo sapiens (Human), UniProt Q99683)
How it was run: as §1

JAK3 = JAK3 (Homo sapiens (Human), UniProt P52333)
How it was run: as §1

Bmx = Bmx (Homo sapiens (Human), UniProt P51813)
How it was run: as §1

HIPK2 = HIPK2 (Homo sapiens (Human), UniProt Q9H2X6)
How it was run: as §1

eEF-2K = eEF-2K (Homo sapiens (Human), UniProt O00418)
How it was run: as §1

FAK = FAK (Homo sapiens (Human), UniProt Q05397)
How it was run: as §1

| Compound | Avg. POC (MLK1) [POC] | Avg. POC (CHK2) [POC] | Avg. POC (PRKG1alpha) [POC] | Avg. POC (Fms) [POC] | Avg. POC (ARK5) [POC] | Avg. POC (BrSK2) [POC] | Avg. POC (DMPK) [POC] | Avg. POC (PKCdelta) [POC] | Avg. POC (Plk2) [POC] | Avg. POC (DRAK1) [POC] | Avg. POC (SRPK1) [POC] | Avg. POC (PKCalpha) [POC] | Avg. POC (KIT) [POC] | Avg. POC (DDR2) [POC] | Avg. POC (CDK5/p35) [POC] | Avg. POC (Fyn) [POC] | Avg. POC (NLK) [POC] | Avg. POC (EphB1) [POC] | Avg. POC (CHK1) [POC] | Avg. POC (mTOR/FKBP12) [POC] | further results |
| --- | --- | --- | --- | --- | --- | --- | --- | --- | --- | --- | --- | --- | --- | --- | --- | --- | --- | --- | --- | --- | --- |
| Cc1c(-c2cnn(C)c2)nn(-c2ccccc2)c1NC(=O)N[C@H]1CCCc2ccccc21 [Example 2, (S)-1-(1′,4-dimethyl-1-phenyl-1H,1′H-3,4′-bipyrazol-5-yl)-3-(1,2,3,4-tetrahydronaphthalen-1-yl)urea] | 75 | 119 | 127.5 | 82 | 109.5 | 139.5 | 105 | 95 | 102 | 108.5 | 122 | 96 | 104 | 113 | 124 | 123.5 | 111 | 108.5 | 106.5 | 105 | Avg. POC (PKCiota): 95.5 POC; Avg. POC (p38gamma): 115 POC; Avg. POC (TAK1): 106 POC; Avg. POC (EGFR): 114 POC; Avg. POC (KDR): 123.5 POC; Avg. POC (TNK2): 100.5 POC; Avg. POC (LKB1): 103.5 POC; Avg. POC (EphB4): 118.5 POC; Avg. POC (PhKgamma2): 113 POC; Avg. POC (CDK1/cyclinB): 122.5 POC; Avg. POC (VRK2): 109 POC; Avg. POC (EphA1): 85 POC; Avg. POC (BTK): 111.5 POC; Avg. POC (MAP3K5): 105 POC; Avg. POC (JAK3): 142.5 POC; Avg. POC (Bmx): 113 POC; Avg. POC (HIPK2): 97 POC; Avg. POC (eEF-2K): 138 POC; Avg. POC (FAK): 116.5 POC |
| Cc1c(-c2cnn(C)c2)nn(-c2ccccc2)c1NC(=O)NC1CCOc2cc(F)ccc21 (stereo not drawn) [Example 12, 1-(1′,4-dimethyl-1-phenyl-1H,1′H-[3,4′-bipyrazol]-5-yl)-3-(7-fluorochroman-4-yl)urea] | 103.5 | 92 | 89.5 | 91 | 99.5 | 147 | 104 | 97.5 | 103.5 | 114 | 97.5 | 104 | 102.5 | 107 | 106.5 | 92.5 | 115.5 | 114 | 99.5 | 105.5 | Avg. POC (PKCiota): 69.5 POC; Avg. POC (p38gamma): 111 POC; Avg. POC (TAK1): 97 POC; Avg. POC (EGFR): 109.5 POC; Avg. POC (KDR): 119.5 POC; Avg. POC (TNK2): 117.5 POC; Avg. POC (LKB1): 91 POC; Avg. POC (EphB4): 121 POC; Avg. POC (PhKgamma2): 110 POC; Avg. POC (CDK1/cyclinB): 107.5 POC; Avg. POC (VRK2): 95 POC; Avg. POC (EphA1): 100 POC; Avg. POC (BTK): 127 POC; Avg. POC (MAP3K5): 111 POC; Avg. POC (JAK3): 112 POC; Avg. POC (Bmx): 115.5 POC; Avg. POC (HIPK2): 91.5 POC; Avg. POC (eEF-2K): 140 POC; Avg. POC (FAK): 104 POC |
| Cc1c(-c2ccc(=O)n(C)c2)nn(-c2ccccc2)c1NC(=O)NC1CN(CC(F)(F)F)Cc2ccccc21 (stereo not drawn) [Example 26, 1-(4-methyl-3-(1-methyl-6-oxo-1,6-dihydropyridin-3-yl)-1-phenyl-1H-pyrazol-5-yl)-3-(2-(2,2,2-trifluoroethyl)-1,2,3,4-tetrahydroisoquinolin-4-yl)urea] | 105.5 | 109 | 98 | 96 | 100.5 | 118 | 106 | 105 | 101.5 | 125 | 102.5 | 107.5 | 94 | 111 | 110.5 | 115.5 | 100.5 | 116.5 | 70.5 | 107.5 | Avg. POC (PKCiota): 85.5 POC; Avg. POC (p38gamma): 118 POC; Avg. POC (TAK1): 108.5 POC; Avg. POC (EGFR): 108 POC; Avg. POC (KDR): 144.5 POC; Avg. POC (TNK2): 123 POC; Avg. POC (LKB1): 95 POC; Avg. POC (EphB4): 115 POC; Avg. POC (PhKgamma2): 108.5 POC; Avg. POC (CDK1/cyclinB): 103 POC; Avg. POC (VRK2): 98 POC; Avg. POC (EphA1): 101 POC; Avg. POC (BTK): 139 POC; Avg. POC (MAP3K5): 116.5 POC; Avg. POC (JAK3): 112 POC; Avg. POC (Bmx): 109.5 POC; Avg. POC (HIPK2): 103 POC; Avg. POC (eEF-2K): 127.5 POC; Avg. POC (FAK): 105 POC |
| COCc1ccc2c(c1)C(NC(=O)Nc1c(C)c(-c3cnn(C)c3)nn1-c1ccccc1)COC2 (stereo not drawn) [Example 32, 1-(1′,4-dimethyl-1-phenyl-1H,1′H-[3,4′-bipyrazol]-5-yl)-3-(6-(methoxymethyl)isochroman-4-yl)urea] | 104.5 | 112 | 84 | 102 | 118.5 | 128.5 | 98.5 | 99 | 103 | 105.5 | 99.5 | 110 | 94.5 | 116 | 112 | 111 | 125.5 | 145.5 | 103 | 113.5 | Avg. POC (PKCiota): 71 POC; Avg. POC (p38gamma): 116.5 POC; Avg. POC (TAK1): 99.5 POC; Avg. POC (EGFR): 102 POC; Avg. POC (KDR): 129 POC; Avg. POC (TNK2): 132 POC; Avg. POC (LKB1): 100 POC; Avg. POC (EphB4): 106 POC; Avg. POC (PhKgamma2): 102.5 POC; Avg. POC (CDK1/cyclinB): 104 POC; Avg. POC (VRK2): 100.5 POC; Avg. POC (EphA1): 114 POC; Avg. POC (BTK): 119 POC; Avg. POC (MAP3K5): 116 POC; Avg. POC (JAK3): 109.5 POC; Avg. POC (Bmx): 106.5 POC; Avg. POC (HIPK2): 99.5 POC; Avg. POC (eEF-2K): 115 POC; Avg. POC (FAK): 116.5 POC |
